Consider one compound from patent US12128035B2, “Activating pyruvate kinase R” (Novo Nordisk Health Care AG, priority 2021, dated 2024).

In the data set the test system is H295R adreno-cortical carcinoma cell line. Description: Cell viability (MTT Kit). The format is cell-based. As for the experimental part:
To assess potential effects on steroidogenesis, Compound 1 was screened for steroid modulation in vitro using the H295R adreno-cortical carcinoma cell line (at 200 to 0.0002 μM) and in an assay to monitor cell viability (MTT Kit). Compound 1 indicated steroid modulation potential (% over vehicle) only at 200 μM, the top concentration tested, with 100% cellular viability at concentrations ≤20 μM (90% viability at 200 μM).

`O=C([C@H](CO)c1ccccc1)N1CC2=C(C1)CN(S(=O)(=O)c1cnc3c(c1)OCCO3)C2` (single isomer, unassigned) [Compound 1]: the cellular viability reads like this: (200 μM) 90%; (concentrations ≤20 μM) 100%.
